Series [1] relates to K562 (chronic myelogenous leukemia; leukemia cell line +ve for Bcr-Abl). Description: Cancer cell assay, K562 tumor cells, viable cells after 96 hours. The following applies: Homo sapiens, 96 hours after treatment, called IC50. The class given is cell-based. The protocol:
(§1) The effect of the compounds of the invention on tumor cells was determined by the assay described by Latham et al., Oncogene 12:827-837 (1996). Tumor cells K562 (chronic myelogenous leukemia; leukemia cell line +ve for Bcr-Abl) or DU145 (prostate cancer) were plated in 12-well dishes at a cell density of 2.5×10^4 cells well. The plated cells were treated 24 hours later with a compound of the invention dissolved in DMSO at multiple concentrations ranging from 0.01 μM to 100 μM. The plates were examined 96 hours later under an inverted microscope, Olympus CK-2 using a 10× objective, and compound activity was noted by physical observation. When necessary, the total number of viable cells was determined by trypsinizing the wells and counting the number of viable cells, as determined by trypan blue exclusion, using a hemacytometer.

The next series deals with DU145 (prostate cancer). As to the kind of experiment: Cancer cell assay, DU145 tumor cells, viable cells after 96 hours. It counts as cell-based. The following applies: Homo sapiens, DU-145, 96 hours after treatment, called IC50. The protocol:
as §1

Structures are written as SMILES. pIC50: −log10 of the molar value. Bounds are passed on as bounds.

For eleven compounds, IC50 and melting point results are on record in patent US20150065499A1, “3-AMINOTHIENO[3,2-c]QUINOLINE DERIVATIVES, METHODS OF PREPARATION AND USES” (TEMPLE UNIVERSITY - OF THE COMMONWEALTH SYSTEM OF HIGHER …, priority 2012, published 2015).

`COC(=O)c1sc2c(cnc3cc(OC)c(OC)cc32)c1NC(=O)C(=O)Nc1ccc(N2CCN(C)CC2)cc1` [Example 28, Methyl 7,8-dimethoxy-3-(2-{[4-(4-methylpiperazin-1-yl)phenyl]amino}-2-oxoacetamido)thieno[3,2-c]quinoline-2-carboxylate]: the melting point (usually the temperature of the solid-liquid transition) was in the range of 240 to 246 °C. Further, the pIC50 (usually the negative decadic logarithm of the IC50, by convention in mol/L) in series [1] was 5.00 to 6.00. The compound further showed a pIC50 with DU145 (prostate cancer) of 4.60 to 5.00.

In the case of `COC(=O)c1sc2c(cnc3cc(OC)c(OC)cc32)c1/N=C/N(C)C` [Example 32, (E)-methyl 3-(((dimethylamino)methylene)amino)-7,8-dimethoxythieno[3,2-c]quinoline-2-carboxylate], the melting point fell in the range of 173 to 175 °C. In series [1], the pIC50 is 4.60 to 5.00. In addition, the pIC50 in the series with DU145 (prostate cancer) is 4.60 to 5.00.

In turn, `COc1cc2ncc3c(N)c(-c4nnn[nH]4)sc3c2cc1OC` [Example 33, 7,8-dimethoxy-2-(1H-tetrazol-5-yl)thieno[3,2-e]quinolin-3-amine] gave a melting point of 252 to 255 °C. This compound also gave a pIC50 in series [1] of 4.30 to 4.60. Also, in the series with DU145 (prostate cancer), the pIC50 is 4.00 to 4.30.

On to `COC(=O)c1sc2c(cnc3ccc(F)cc32)c1N` [Example 34, Methyl 3-amino-8-fluorothieno[3,2-c]quinoline-2-carboxylate], for which the melting point was 270 to 272 °C. The pIC50 in series [1] is 5.00. The pIC50 with DU145 (prostate cancer) was 5.00.

For the compound `COC(=O)c1sc2c(cnc3cc(F)c(F)cc32)c1N` [Example 35, Methyl 3-amino-7,8-difluorothieno[3,2-c]quinoline-2-carboxylate], the melting point lay in the range of 298 to 300 °C. Further, in series [1], the pIC50 is 5.00. The pIC50 in the series with DU145 (prostate cancer) is 5.00.

`N#Cc1sc2c(cnc3ccc(F)cc32)c1N` [Example 36, 3-Amino-8-fluorothieno[3,2-c]quinoline-2-carbonitrile]: the melting point was > 300 °C. This compound also gave a pIC50 in series [1] of 4.12. In the series on DU145 (prostate cancer), the pIC50 is 4.12.

For `Nc1c(C(=O)c2ccc(F)cc2)sc2c1cnc1ccc(F)cc12` [Example 37, (3-Amino-8-fluorothieno[3,2-c]quinolin-2-yl)(4-fluorophenyl)methanone], the melting point lay within 276 to 278 °C. Also, the pIC50 in series [1] is 6.82. The compound further showed a pIC50 with DU145 (prostate cancer) of 5.30.

For `N#Cc1sc2c(cnc3cc(F)c(F)cc32)c1N` [Example 38, 3-Amino-7,8-difluorothieno[3,2-c]quinoline-2-carbonitrile], the melting point was 300 to 301 °C. Also, the pIC50 in series [1] was 4.60. For the same compound, the pIC50 with DU145 (prostate cancer) was 4.60.

For `Nc1c(C(=O)c2ccc(F)cc2)sc2c1cnc1cc(F)c(F)cc12` [Example 39, (3-Amino-7,8-difluorothieno[3,2-c]quinolin-2-yl)(4-fluorophenyl)methanone], the melting point was > 320 °C. Moreover, the pIC50 in series [1] is 4.12. This compound also gave a pIC50 in the series with DU145 (prostate cancer) of 4.12.

Turning to `COc1ccc(C(=O)c2sc3c(cnc4cc(F)c(F)cc43)c2N)cc1` [Example 40, (3-Amino-7,8-difluorothieno[3,2-c]quinolin-2-yl)(4-methoxyphenyl)methanone], the melting point lay in the range of 258 to 260 °C. The negative logarithm of the IC50 (pIC50) in series [1] is 4.12. In the series on DU145 (prostate cancer), this compound showed a pIC50 of 4.12.

In turn, `COc1ccc(C(=O)c2sc3c(cnc4ccc(F)cc43)c2N)cc1` [Example 41, (3-Amino-8-fluorothieno[3,2-c]quinolin-2-yl)(4-methoxyphenyl)methanone] showed a melting point of 256 to 258 °C. For the same compound, in series [1], the pIC50 was 6.22. For the same compound, the pIC50 with DU145 (prostate cancer) is 5.00.
